# Results published in article PMC10526274, “Epithelial-Immune Cell Crosstalk Determines the Activation of Immune Cells In Vitro by the Human Cathelicidin LL-37 at Low Physiological Concentrations” (Biomolecules, 2023).
# Tested on: primary blood monocytes
# Experiment: Multiplex phosphoprotein signaling in monocyte lysates, monocytes alone + LL-37
# Format: cell-based, human
# Conditions: 1 µM LL-37, 2 h, mean MFI normalized to β-tubulin
# Procedure: Primary blood monocytes were isolated from PBMCs by plastic adhesion in the wells of a 24-well plate 24 h prior to the experiment. For that, 2 × 10^6 PBMC were seeded in each well in 2 mL of RPMI-1640 without supplements and kept for 1 h in a humidified CO2-incubator (5% CO2, 37 °C). Then, the adhered monocytes were thoroughly washed 3 times with the culture medium without supplements, and 600 µL of the complete RPMI-1640, supplemented with 10% Human AB serum, was added into each well. Then, 24 h later, the medium in the wells of a 24-well plate was replaced by a fresh medium with or without 1 µM of LL-37, and the permeable inserts with Caco-2 monolayers with TEER > 400 Ω × cm^2, containing 400 μL of the complete medium in their apical chamber, were immediately placed into the appropriate wells for 2 h. Then, 2 h later, the culture medium and the inserts were carefully removed, and the cells in each well were washed with PBS and lysed in 100 µL of MILLIPLEX MAP Lysis Buffer (cat. #43-040, Merck, Darmstadt, Germany), containing phosphatase inhibitors including 1 mM sodium orthovanadate (Na3VO4). To prevent protein degradation, a protease inhibitor cocktail (cat. #535140, Merck) was freshly added to the MILLIPLEX MAP Lysis Buffer. Cell lysate preparation was performed in accordance with the manufacturer’s instructions.
# The phosphorylation of the following key cell signaling kinases and transcription factors was measured in cell lysates by using the MILLIPLEX multi-pathway magnetic bead 9-plex kit (#48-680MAG, Merck), containing phosphorylation state-specific antibodies: ERK/MAP kinase 1/2 (Thr185/Tyr187), Akt (Ser473), STAT3 (Ser727), JNK (Thr183/Tyr185), p70S6 kinase (Thr412), NF-κB (Ser536), STAT5A/B (Tyr694/699), CREB (Ser133), and p38 (Thr180/Tyr182). β-Tubulin MAPmate magnetic beads (#46-713MAG, Merck) were used as an assay normalization control to normalize the total protein level between the samples. A multiplex assay was carried out in accordance with the manufacturer’s instructions with overnight incubation of the samples with primary antibodies to phosphorylated signaling proteins on the MAGPIX system (Merck) using the xPONENT 4.2 software (Merck). The final analysis of the acquired fluorescence data was performed with the MILLIPLEX Analyst v5.1 software (Merck). Normalized MFI values were compared with an unpaired two-sample t-test using GraphPad Prism v.8.0.1 (GraphPad Software). The p-values ≤ 0.05 were considered significant.
substance,measurement,setting,value
"LL-37: the only human cathelicidin, host defense antimicrobial peptide of 37 a.a. residues, produced by solid-phase peptide synthesis",phosphorylated STAT3,control 0.03,0.04 MFI
same,phosphorylated NF-kB,control 96.21,54.12 MFI
same,phosphorylated STAT5,control 134.68,66.15 MFI
same,phosphorylated JNK,control 214.97,140.9 MFI
same,phosphorylated p70S6K,control 279.26,462.14 MFI
same,phosphorylated Akt,control 3026,2827 MFI
same,phosphorylated ERK 1/2,control 5351,4054 MFI
same,phosphorylated p38,control 28314,24565 MFI
same,phosphorylated CREB,control 151618,112466 MFI
